Source: PMC10518257 (Nature Cancer, 2023)

Assays:
Assay in all cases: Kinase selectivity profiling at a single concentration (Carna Biosciences)
Format in all cases: biochemical
[1] = biological target: T1, panel of 255 (vepafestinib) or 256 (all other inhibitors) recombinant kinases (Homo sapiens, UniProt P54762); conditions: 22 nM
T1 construct: purchased Carna Biosciences

[2] = biological target: T2, panel of 255 (vepafestinib) or 256 (all other inhibitors) recombinant kinases (Homo sapiens, UniProt Q92630); conditions: 22 nM
T2 construct: purchased Carna Biosciences
T2 sequence (Q92630 whole entry): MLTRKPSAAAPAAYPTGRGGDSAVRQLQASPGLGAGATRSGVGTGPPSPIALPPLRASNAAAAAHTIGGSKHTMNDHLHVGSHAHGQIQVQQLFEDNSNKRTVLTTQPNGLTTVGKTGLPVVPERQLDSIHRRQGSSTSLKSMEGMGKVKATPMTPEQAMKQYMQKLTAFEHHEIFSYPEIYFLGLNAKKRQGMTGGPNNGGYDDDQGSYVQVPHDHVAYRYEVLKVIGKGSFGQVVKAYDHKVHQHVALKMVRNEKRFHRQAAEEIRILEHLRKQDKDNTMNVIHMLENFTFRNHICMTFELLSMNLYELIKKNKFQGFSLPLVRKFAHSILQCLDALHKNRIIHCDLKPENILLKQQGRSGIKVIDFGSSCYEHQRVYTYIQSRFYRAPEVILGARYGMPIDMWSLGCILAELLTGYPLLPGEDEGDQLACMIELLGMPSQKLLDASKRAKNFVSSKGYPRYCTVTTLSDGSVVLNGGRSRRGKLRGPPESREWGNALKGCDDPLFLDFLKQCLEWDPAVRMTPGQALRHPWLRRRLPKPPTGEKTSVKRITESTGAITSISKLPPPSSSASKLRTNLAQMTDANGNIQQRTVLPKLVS

[3] = biological target: T3, panel of 255 (vepafestinib) or 256 (all other inhibitors) recombinant kinases (Homo sapiens, UniProt P24941); conditions: 22 nM
T3 construct: purchased Carna Biosciences

[4] = biological target: T4, panel of 255 (vepafestinib) or 256 (all other inhibitors) recombinant kinases (Homo sapiens, UniProt P41743); conditions: 22 nM
T4 construct: purchased Carna Biosciences
T4 sequence (P41743 whole entry): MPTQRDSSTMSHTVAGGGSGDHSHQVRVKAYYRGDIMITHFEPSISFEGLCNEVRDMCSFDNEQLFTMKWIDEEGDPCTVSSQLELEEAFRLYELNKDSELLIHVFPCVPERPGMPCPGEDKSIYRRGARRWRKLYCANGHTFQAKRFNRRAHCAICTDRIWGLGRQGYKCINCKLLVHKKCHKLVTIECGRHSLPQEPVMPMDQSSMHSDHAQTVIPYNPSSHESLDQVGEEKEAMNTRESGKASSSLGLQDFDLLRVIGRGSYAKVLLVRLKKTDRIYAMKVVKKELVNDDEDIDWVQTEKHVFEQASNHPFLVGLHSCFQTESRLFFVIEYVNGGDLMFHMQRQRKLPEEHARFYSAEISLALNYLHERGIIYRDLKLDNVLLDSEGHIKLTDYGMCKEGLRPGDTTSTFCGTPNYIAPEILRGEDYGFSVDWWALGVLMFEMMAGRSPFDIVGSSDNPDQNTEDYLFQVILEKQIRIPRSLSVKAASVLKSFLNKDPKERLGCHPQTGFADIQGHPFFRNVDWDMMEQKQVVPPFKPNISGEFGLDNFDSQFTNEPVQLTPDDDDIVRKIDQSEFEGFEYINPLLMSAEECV

[5] = biological target: T5, panel of 255 (vepafestinib) or 256 (all other inhibitors) recombinant kinases (Homo sapiens, UniProt P07333); conditions: 17 nM
T5 construct: purchased Carna Biosciences
T5 sequence (P07333 20-972): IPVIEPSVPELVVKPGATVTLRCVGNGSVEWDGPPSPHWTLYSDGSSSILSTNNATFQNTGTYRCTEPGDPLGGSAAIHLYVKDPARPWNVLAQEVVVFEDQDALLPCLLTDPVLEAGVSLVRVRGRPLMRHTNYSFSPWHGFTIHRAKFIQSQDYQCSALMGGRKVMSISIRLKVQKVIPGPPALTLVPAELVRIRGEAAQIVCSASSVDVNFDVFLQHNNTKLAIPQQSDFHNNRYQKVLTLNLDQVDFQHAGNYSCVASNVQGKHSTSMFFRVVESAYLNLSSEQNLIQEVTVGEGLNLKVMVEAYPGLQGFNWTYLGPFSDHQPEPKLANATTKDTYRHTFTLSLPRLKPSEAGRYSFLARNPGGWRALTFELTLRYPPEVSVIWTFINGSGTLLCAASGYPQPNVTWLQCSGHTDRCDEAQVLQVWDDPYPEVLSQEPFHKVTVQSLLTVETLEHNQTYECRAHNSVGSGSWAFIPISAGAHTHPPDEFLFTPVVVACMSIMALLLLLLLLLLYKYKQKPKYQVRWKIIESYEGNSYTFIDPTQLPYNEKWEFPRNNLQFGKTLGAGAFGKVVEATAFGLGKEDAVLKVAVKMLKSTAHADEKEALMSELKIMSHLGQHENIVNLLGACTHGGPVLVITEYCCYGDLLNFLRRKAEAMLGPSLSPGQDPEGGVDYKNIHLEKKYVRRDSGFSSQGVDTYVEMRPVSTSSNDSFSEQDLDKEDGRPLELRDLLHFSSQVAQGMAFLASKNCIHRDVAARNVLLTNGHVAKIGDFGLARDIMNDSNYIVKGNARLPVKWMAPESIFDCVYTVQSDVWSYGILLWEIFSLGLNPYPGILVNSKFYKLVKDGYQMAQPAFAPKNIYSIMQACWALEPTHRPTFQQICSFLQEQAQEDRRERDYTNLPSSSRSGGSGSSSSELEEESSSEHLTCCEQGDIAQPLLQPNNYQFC

[6] = biological target: T6, panel of 255 (vepafestinib) or 256 (all other inhibitors) recombinant kinases (Homo sapiens, UniProt Q16832); conditions: 17 nM
T6 construct: purchased Carna Biosciences
T6 sequence (Q16832 22-855): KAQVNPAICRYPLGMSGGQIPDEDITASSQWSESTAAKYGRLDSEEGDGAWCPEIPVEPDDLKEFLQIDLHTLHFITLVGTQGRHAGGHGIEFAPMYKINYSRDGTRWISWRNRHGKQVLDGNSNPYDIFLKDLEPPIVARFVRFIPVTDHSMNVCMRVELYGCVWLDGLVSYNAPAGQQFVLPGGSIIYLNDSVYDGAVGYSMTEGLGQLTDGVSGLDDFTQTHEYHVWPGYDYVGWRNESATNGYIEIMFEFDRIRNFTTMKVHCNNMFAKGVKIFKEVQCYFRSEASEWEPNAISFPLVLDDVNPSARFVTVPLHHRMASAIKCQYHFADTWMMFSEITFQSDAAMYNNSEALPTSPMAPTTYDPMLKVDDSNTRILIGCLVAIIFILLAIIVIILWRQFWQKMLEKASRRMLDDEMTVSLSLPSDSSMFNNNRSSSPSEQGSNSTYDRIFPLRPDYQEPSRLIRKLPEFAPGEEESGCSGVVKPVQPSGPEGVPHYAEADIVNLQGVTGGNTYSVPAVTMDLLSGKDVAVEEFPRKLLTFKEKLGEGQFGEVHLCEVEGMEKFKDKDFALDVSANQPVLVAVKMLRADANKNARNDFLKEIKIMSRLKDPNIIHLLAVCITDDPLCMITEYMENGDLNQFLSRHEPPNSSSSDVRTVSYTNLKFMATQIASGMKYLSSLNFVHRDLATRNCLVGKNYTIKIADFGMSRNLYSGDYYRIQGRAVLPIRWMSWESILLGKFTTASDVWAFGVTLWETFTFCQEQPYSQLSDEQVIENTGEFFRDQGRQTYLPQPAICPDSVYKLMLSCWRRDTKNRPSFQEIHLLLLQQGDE

[7] = biological target: T7, panel of 255 (vepafestinib) or 256 (all other inhibitors) recombinant kinases (Homo sapiens, UniProt P12931); conditions: 17 nM
T7 construct: purchased Carna Biosciences
T7 sequence (P12931 whole entry): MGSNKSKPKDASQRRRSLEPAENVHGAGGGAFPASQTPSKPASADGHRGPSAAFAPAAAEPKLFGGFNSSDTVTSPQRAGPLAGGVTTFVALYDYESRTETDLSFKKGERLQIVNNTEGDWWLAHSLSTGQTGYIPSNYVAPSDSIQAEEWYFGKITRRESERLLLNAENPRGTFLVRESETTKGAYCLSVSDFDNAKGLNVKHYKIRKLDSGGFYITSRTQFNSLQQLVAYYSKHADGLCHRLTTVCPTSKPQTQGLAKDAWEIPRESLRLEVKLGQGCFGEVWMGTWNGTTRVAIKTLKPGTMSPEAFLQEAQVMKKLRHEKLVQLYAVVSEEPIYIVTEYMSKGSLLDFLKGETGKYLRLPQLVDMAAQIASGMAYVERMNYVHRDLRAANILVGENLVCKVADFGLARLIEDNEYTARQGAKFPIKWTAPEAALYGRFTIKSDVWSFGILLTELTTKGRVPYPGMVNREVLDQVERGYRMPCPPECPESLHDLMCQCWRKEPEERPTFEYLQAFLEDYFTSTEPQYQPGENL

T1 sequence (P54762 18-984): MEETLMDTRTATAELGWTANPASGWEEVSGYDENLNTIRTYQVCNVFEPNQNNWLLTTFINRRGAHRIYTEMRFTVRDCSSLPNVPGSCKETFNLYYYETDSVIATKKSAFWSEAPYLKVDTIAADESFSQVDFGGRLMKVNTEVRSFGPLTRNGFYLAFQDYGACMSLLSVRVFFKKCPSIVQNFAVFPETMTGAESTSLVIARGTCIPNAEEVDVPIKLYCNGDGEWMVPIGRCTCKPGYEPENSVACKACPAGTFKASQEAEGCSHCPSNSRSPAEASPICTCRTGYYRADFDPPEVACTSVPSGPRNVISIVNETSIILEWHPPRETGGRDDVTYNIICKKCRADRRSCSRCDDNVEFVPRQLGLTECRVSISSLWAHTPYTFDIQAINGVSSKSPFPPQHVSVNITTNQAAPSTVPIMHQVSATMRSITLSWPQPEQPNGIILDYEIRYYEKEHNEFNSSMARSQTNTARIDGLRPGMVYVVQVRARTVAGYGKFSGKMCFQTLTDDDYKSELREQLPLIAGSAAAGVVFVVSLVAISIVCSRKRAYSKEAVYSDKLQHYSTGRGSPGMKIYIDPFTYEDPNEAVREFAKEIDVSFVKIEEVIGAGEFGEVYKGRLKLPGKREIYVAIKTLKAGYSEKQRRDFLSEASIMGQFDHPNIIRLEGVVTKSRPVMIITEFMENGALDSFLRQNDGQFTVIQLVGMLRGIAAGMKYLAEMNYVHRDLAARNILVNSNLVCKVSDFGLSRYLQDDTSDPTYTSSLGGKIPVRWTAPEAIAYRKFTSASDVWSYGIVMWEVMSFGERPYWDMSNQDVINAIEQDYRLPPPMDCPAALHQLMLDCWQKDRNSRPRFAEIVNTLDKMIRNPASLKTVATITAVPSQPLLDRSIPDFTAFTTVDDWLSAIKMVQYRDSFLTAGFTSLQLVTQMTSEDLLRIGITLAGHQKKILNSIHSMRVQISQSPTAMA

Compound	% Inhibiton EPHB1 [1] [%]	% Inhibiton DYRK2 [2] [%]	% Inhibiton CDK2/CycA2 [3] [%]	% Inhibiton PKCι [4] [%]	% Inhibiton FMS [5] [%]	% Inhibiton DDR2 [6] [%]	% Inhibiton SRC [7] [%]
COc1ccc(CN2C3CC2CN(c2ccc(-c4cc(OCC(C)(C)O)cn5ncc(C#N)c45)cn2)C3)cn1 [Selpercatinib]	36.2	17.3	17.9	12.7			
CO[C@]1(C(=O)N[C@@H](C)c2ccc(-n3cc(F)cn3)nc2)CC[C@H](c2nc(C)cc(Nc3cc(C)[nH]n3)n2)CC1 [Pralsetinib]					25.5	72.5	34.5
